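Where inhibition never reached the appropriate level, the endpoint shown equals the highest concentration tested. Otherwise, values were interpolated linearly from a five-concentration, 48-hour dose response in 96-well plates. GI50 = concentration required for 50% inhibition of growth.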 The source made the active and inactive calls. Rule as the data show it: active = GI50 up to about 1.1 µM and inactive = higher.
Tests used:
Assay in all cases: inhibition of tumour cell growth, NCI panel, 48 h
[1] = test system: SW-620
[2] = test system: OVCAR-8
[3] = test system: SR
[4] = test system: SK-MEL-2
[5] = test system: CCRF-CEM
[6] = test system: SNB-75
[7] = test system: K562
[8] = test system: NCI-H460
[9] = test system: SF-539
[10] = test system: HT-29
[11] = test system: ACHN
[12] = test system: OVCAR-3
[13] = test system: UACC-257
[14] = test system: SN12C
[15] = test system: SK-MEL-28
[16] = test system: EKVX
[17] = test system: NCI-H226
[18] = test system: HOP-92

SMILES | GI50 [1] | GI50 [2] | GI50 [3] | GI50 [4] | GI50 [5] | GI50 [6] | GI50 [7] | GI50 [8] | GI50 [9] | GI50 [10] | GI50 [11] | GI50 [12] | GI50 [13] | GI50 [14] | GI50 [15] | GI50 [16] | GI50 [17] | GI50 [18]
O=C1N(c2ccccc2)C2(O)C(=O)c3ccccc3C2(O)N1c1ccccc1 (centres undefined) | > 100 µM (inactive) | > 100 µM (inactive) | > 100 µM (inactive) | > 100 µM (inactive) | > 100 µM (inactive) | > 100 µM (inactive) | > 100 µM (inactive) | > 100 µM (inactive) | > 100 µM (inactive) | > 100 µM (inactive) | > 100 µM (inactive) | > 100 µM (inactive) | > 100 µM (inactive) | > 100 µM (inactive) | > 100 µM (inactive) | > 100 µM (inactive) | > 100 µM (inactive) | –
CCCc1c[nH]c(-c2ccc(-c3cc(CCC)c(C=O)[nH]3)s2)c1 | 17.4 µM (inactive) | 13.6 µM (inactive) | – | 15 µM (inactive) | 21.8 µM (inactive) | 19.8 µM (inactive) | 12.4 µM (inactive) | 4.55 µM (inactive) | 18.7 µM (inactive) | 5.38 µM (inactive) | 19.2 µM (inactive) | 17 µM (inactive) | 17.3 µM (inactive) | 15.6 µM (inactive) | 13.6 µM (inactive) | – | 18.7 µM (inactive) | –
Clc1ccc(C[P+]2(c3ccccc3)CCCCC2)cc1.[O-][Cl+3]([O-])([O-])[O-] | 80 µM (inactive) | > 100 µM (inactive) | 48.6 µM (inactive) | 48.6 µM (inactive) | 75.9 µM (inactive) | 37.1 µM (inactive) | 78.2 µM (inactive) | > 100 µM (inactive) | > 100 µM (inactive) | 32 µM (inactive) | > 100 µM (inactive) | 44.7 µM (inactive) | 28.2 µM (inactive) | > 100 µM (inactive) | 62.8 µM (inactive) | > 100 µM (inactive) | > 100 µM (inactive) | –
O=[N+]([O-])c1cc(C2SCc3nc4ccccc4n32)ccc1Cl (centres undefined) | 41 µM (inactive) | 30.3 µM (inactive) | 30.2 µM (inactive) | 21.2 µM (inactive) | 24.9 µM (inactive) | 28.7 µM (inactive) | 17.1 µM (inactive) | 31.8 µM (inactive) | 27.8 µM (inactive) | 30.8 µM (inactive) | 27.5 µM (inactive) | 25.3 µM (inactive) | 22.3 µM (inactive) | 12 µM (inactive) | 25.9 µM (inactive) | 31.4 µM (inactive) | 25.1 µM (inactive) | 25.1 µM (inactive)
Cc1cc(C)cc(-n2c3nc(=O)n(C)c(=O)c-3nc3ccccc32)c1 | 17 µM (inactive) | 27.6 µM (inactive) | – | 22.9 µM (inactive) | 23.2 µM (inactive) | 34.9 µM (inactive) | 22.1 µM (inactive) | 23.9 µM (inactive) | 21.4 µM (inactive) | 10.3 µM (inactive) | 27.4 µM (inactive) | 3.34 µM (inactive) | 15.3 µM (inactive) | 26.8 µM (inactive) | – | 17.7 µM (inactive) | 34.7 µM (inactive) | –
CCc1ccc(Cc2ccc(CC)c(NC(=O)C(=O)C3NC(=S)NC3=O)c2CC)c(CC)c1NC(=O)C(=O)C1NC(=S)NC1=O (centres undefined) | > 100 µM (inactive) | > 100 µM (inactive) | – | > 100 µM (inactive) | > 100 µM (inactive) | 35.2 µM (inactive) | > 100 µM (inactive) | > 100 µM (inactive) | > 100 µM (inactive) | – | > 100 µM (inactive) | > 100 µM (inactive) | > 100 µM (inactive) | – | > 100 µM (inactive) | > 100 µM (inactive) | – | 38 µM (inactive)
Nc1ccccc1SC(/C=C/NNC1=NN=C(c2ccccc2)C(c2ccccc2)N1)c1ccccc1 (centres undefined) | 11.7 µM (inactive) | 18.1 µM (inactive) | – | 17.7 µM (inactive) | 2.59 µM (inactive) | 4.72 µM (inactive) | 9.25 µM (inactive) | 18.5 µM (inactive) | 13.2 µM (inactive) | 17.1 µM (inactive) | 14.9 µM (inactive) | 13 µM (inactive) | 13.5 µM (inactive) | 17 µM (inactive) | 13.7 µM (inactive) | 15.4 µM (inactive) | 13.7 µM (inactive) | 8.57 µM (inactive)
CCn1cc(C(=O)O)c(=O)c2cc(F)c(N3CCNCC3)nc21 [ENOXACIN] | > 100 µM (inactive) | > 100 µM (inactive) | 77.8 µM (inactive) | > 100 µM (inactive) | > 100 µM (inactive) | > 100 µM (inactive) | 63.5 µM (inactive) | > 100 µM (inactive) | > 100 µM (inactive) | > 100 µM (inactive) | > 100 µM (inactive) | > 100 µM (inactive) | > 100 µM (inactive) | 68.7 µM (inactive) | > 100 µM (inactive) | > 100 µM (inactive) | > 100 µM (inactive) | 32.8 µM (inactive)
CCC1CC2C(=O)N(c3ccccc3)C(=O)C2c2[nH]c3ccccc3c21 (centres undefined) | 46.1 µM (inactive) | 12.2 µM (inactive) | 23.1 µM (inactive) | – | 26.9 µM (inactive) | 3.08 µM (inactive) | 25.4 µM (inactive) | 15.8 µM (inactive) | – | 22.2 µM (inactive) | 20.2 µM (inactive) | 15.7 µM (inactive) | – | 19.6 µM (inactive) | 38.6 µM (inactive) | 23.2 µM (inactive) | 11.4 µM (inactive) | –
COc1cc2c(c(OC(C)=O)c1OC(C)=O)-c1ccc(SC)c(=O)cc1C(NC(C)=O)CC2 (centres undefined) | 0.951 µM (active) | 3.66 µM (inactive) | 0.964 µM (active) | 0.565 µM (active) | 0.631 µM (active) | 0.255 µM (active) | 0.483 µM (active) | 3.15 µM (inactive) | 0.494 µM (active) | 2.04 µM (inactive) | 24 µM (inactive) | 0.5 µM (active) | 1.07 µM (active) | 4.52 µM (inactive) | 3.24 µM (inactive) | 32.1 µM (inactive) | 6.87 µM (inactive) | 0.741 µM (active)
Cc1ccc(C2=[N+]([O-])c3ccccc3C2=O)cc1 | 36.4 µM (inactive) | 17.3 µM (inactive) | 36.1 µM (inactive) | > 46.8 µM (inactive) | 11.9 µM (inactive) | 44.4 µM (inactive) | 16.1 µM (inactive) | 36.3 µM (inactive) | 30.9 µM (inactive) | 26.3 µM (inactive) | 16 µM (inactive) | 16.6 µM (inactive) | 16.5 µM (inactive) | 19.7 µM (inactive) | 15.8 µM (inactive) | 24.7 µM (inactive) | 46.7 µM (inactive) | 9.23 µM (inactive)
CC1=C(C(=O)Nc2cc(=O)n(C)c(=O)n2C)C(c2ccc([N+](=O)[O-])cc2)C(C(=O)Nc2cc(=O)n(C)c(=O)n2C)=C(C)N1 | > 100 µM (inactive) | 68.1 µM (inactive) | – | > 100 µM (inactive) | > 100 µM (inactive) | 42 µM (inactive) | 75.5 µM (inactive) | > 100 µM (inactive) | > 100 µM (inactive) | > 100 µM (inactive) | 68.2 µM (inactive) | > 100 µM (inactive) | 86.7 µM (inactive) | > 100 µM (inactive) | > 100 µM (inactive) | > 100 µM (inactive) | 49.3 µM (inactive) | 26.7 µM (inactive)
O=S1(=O)c2cc(S(=O)(=O)n3ccnc3)ccc2NC2=NCCCN21 | 26.2 µM (inactive) | 27.2 µM (inactive) | 20.7 µM (inactive) | – | 21 µM (inactive) | 26.7 µM (inactive) | 17.7 µM (inactive) | – | 19.6 µM (inactive) | 20.3 µM (inactive) | 34.3 µM (inactive) | 20.3 µM (inactive) | > 100 µM (inactive) | 33.3 µM (inactive) | > 100 µM (inactive) | > 100 µM (inactive) | 19.8 µM (inactive) | > 100 µM (inactive)
O=C1c2ccccc2S[C@@H](O)[C@@H]2CCCN12 | > 100 µM (inactive) | > 100 µM (inactive) | > 100 µM (inactive) | > 100 µM (inactive) | > 100 µM (inactive) | – | > 100 µM (inactive) | > 100 µM (inactive) | > 100 µM (inactive) | – | > 100 µM (inactive) | > 100 µM (inactive) | > 100 µM (inactive) | > 100 µM (inactive) | > 100 µM (inactive) | > 100 µM (inactive) | – | > 100 µM (inactive)
CC(=O)CC(=O)Nc1ccccc1C(F)(F)F | > 100 µM (inactive) | > 100 µM (inactive) | – | > 100 µM (inactive) | > 100 µM (inactive) | > 100 µM (inactive) | > 100 µM (inactive) | > 100 µM (inactive) | > 100 µM (inactive) | – | > 100 µM (inactive) | – | – | > 100 µM (inactive) | > 100 µM (inactive) | > 100 µM (inactive) | > 100 µM (inactive) | > 100 µM (inactive)
FC(F)(F)c1ccccc1/C=N/C12CC3CC(CC(C3)C1)C2 | > 100 µM (inactive) | > 100 µM (inactive) | > 100 µM (inactive) | > 100 µM (inactive) | – | 86.1 µM (inactive) | > 100 µM (inactive) | > 100 µM (inactive) | > 100 µM (inactive) | > 100 µM (inactive) | > 100 µM (inactive) | > 100 µM (inactive) | > 100 µM (inactive) | > 100 µM (inactive) | > 100 µM (inactive) | > 100 µM (inactive) | > 100 µM (inactive) | –
